Where two headings read alike, the source gives them in different places.
Legend:
[1] = target: T1, human enzyme NAMPT (full length) (Homo sapiens, UniProt P43490); assay: NMN fluorescence biochemical assay (stimulation of NMN synthesis by NAMPT); details: for EC50: concentration giving half-maximal activation, read-out: Enzymatic EC50; for Enzymatic Emax: fold change of maximal activation compared to DMSO
T1 construct: human enzyme NAMPT (full length)
In short: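 Full-length human NAMPT (100 nM) was preincubated 15 min at 37 °C with compound in 50 mM Tris-HCl pH 7.5, 10 mM MgCl2, 2 mM DTT, then reacted 1 h at 37 °C with 50 μM NAM, 100 μM PRPP, 4 mM ATP (stated solution concentrations). NMN was derivatised with acetophenone/KOH then formic acid and read at Ex/Em 382/445 nm; EC50 and Emax (fold over DMSO) reported.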

[2] = test system: endogenous NAMPT in U2OS cells; assay: Cellular NAD+ modulation assay (NAD/NADH-Glo, U2OS cells); assay type: cell-based; details: Homo sapiens; for maximal fold induction: read-out: Cellular Emax
In short: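 NAD/NADH-Glo luminescence quantified NAD+ after acid treatment (60 °C, 15 min) and neutralization of DTAB lysates. Beforehand, U2OS cells seeded 16 h earlier received compound concentration series for 24 h at 37 °C. Values given as half-maximal activation concentration (EC50) and maximal fold change versus DMSO (Emax).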

[3] = NMN synthesis by purified human NAMPT (100 nM)
[4] = 24 hours incubation with compound
[5] = NMN fluorescence assay, purified human NAMPT 100 nM
[6] = 24 hours incubation, cellular NAD+

T1 sequence (P43490 whole entry): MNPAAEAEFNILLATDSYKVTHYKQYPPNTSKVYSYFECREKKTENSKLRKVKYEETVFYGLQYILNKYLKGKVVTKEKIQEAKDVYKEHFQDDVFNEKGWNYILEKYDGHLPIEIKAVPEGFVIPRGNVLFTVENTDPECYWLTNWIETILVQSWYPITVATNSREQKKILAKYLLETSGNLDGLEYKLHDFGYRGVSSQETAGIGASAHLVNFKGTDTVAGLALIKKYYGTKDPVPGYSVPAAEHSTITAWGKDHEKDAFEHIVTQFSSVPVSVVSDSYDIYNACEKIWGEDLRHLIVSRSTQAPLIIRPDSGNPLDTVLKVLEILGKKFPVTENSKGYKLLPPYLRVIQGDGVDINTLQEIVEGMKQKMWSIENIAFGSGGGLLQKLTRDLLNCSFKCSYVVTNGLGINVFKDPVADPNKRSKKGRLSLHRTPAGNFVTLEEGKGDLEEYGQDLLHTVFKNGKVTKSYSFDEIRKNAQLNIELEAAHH

Row | EC50 [1, 3] [nM] | Enzymatic Emax [1] | EC50 [2, 4] [nM] | EC50 [1, 5] [nM] | EC50 [2, 6] [nM] | Compound | maximal fold induction [2, 4] | maximal fold induction [2, 6]
1 | 500 to 5000 | B (3≥B>2) | 5000 to 50000 | – | – | CC1c2cc(NC3CCOCC3)ccc2C(=O)N1Cc1ccc2[nH]c(=O)oc2c1 (stereo not shown) [Compound 95, 6-((3-methyl-1-oxo-5-((tetrahydro-2H-pyran-4-yl)amino)isoindolin-2-yl)methyl)benzo[d]oxazol-2(3H)-one] | > 1.5 | –
2 | – | A (A>3) | – | < 500 | < 500 | N#Cc1ccnc(C#N)c1CC1c2ccccc2C(=O)N1Cc1ccc2[nH]nnc2c1 (stereo not shown) [Compound 353, 3-((2-((1H-benzo[d][1,2,3]triazol-5-yl)methyl)-3-oxoisoindolin-1-yl)methyl)pyridine-2,4-dicarbonitrile] | – | > 1.5
3 | ≥ 5000 | B (3≥B>2) | 5000 to 50000 | – | – | C[C@@H]1c2ccccc2C(=O)N1Cc1ccc2[nH]c(=O)oc2c1 [Compound 55, (R)-6-((1-methyl-3-oxoisoindolin-2-yl)methyl)benzo[d]oxazol-2(3H)-one] | 1.2 to 1.5 | –
4 | ≥ 5000 | A (A>3) | 5000 to 50000 | – | – | CC1c2cc(CN3CC4(CNC4)C3)ccc2C(=O)N1Cc1ccc2[nH]c(=O)oc2c1 (stereo not shown) [Compound 115, 6-((5-((2,6-diazaspiro[3.3]heptan-2-yl)methyl)-3-methyl-1-oxoisoindolin-2-yl)methyl) benzo[d]oxazol-2(3H)-one] | 1.2 to 1.5 | –
5 | 500 to 5000 | A (A>3) | 500 to 5000 | – | – | O=C1c2ccccc2C(Cc2ccccc2OC(F)F)N1Cc1ccc2[nH]c(=O)oc2c1 (stereo not shown) [Compound 210, 6-((1-(2-(difluoromethoxy)benzyl)-3-oxoisoindolin-2-yl)methyl)benzo[d]oxazol-2(3H)-one] | > 1.5 | –
6 | – | B (3≥B>2) | – | 500 to 5000 | 500 to 5000 | Cn1ncc(Cl)c1CC1c2ccccc2C(=O)N1C/C(F)=C/c1c[nH]nc1Cl (stereo not shown) [Compound 519, (Z)-3-((4-chloro-1-methyl-1H-pyrazol-5-yl)methyl)-2-(3-(3-chloro-1H-pyrazol-4-yl)-2-fluoroallyl)isoindolin-1-one] | – | > 1.5
7 | 500 to 5000 | B (3≥B>2) | 5000 to 50000 | – | – | O=C1c2ccccc2C(CCc2ccccc2)N1Cc1ccc2[nH]c(=O)oc2c1 (stereo not shown) [Compound 114, 6-((1-oxo-3-phenethylisoindolin-2-yl)methyl)benzo[d]oxazol-2(3H)-one] | > 1.5 | –
8 | < 500 | A (A>3) | < 500 | – | – | N#Cc1ccc2c(c1)C(Cc1c(Cl)ccnc1C#N)N(Cc1ccc3[nH]c(=O)oc3c1)C2=O (stereo not shown) [Compound 276, 3-((4-chloro-2-cyanopyridin-3-yl)methyl)-1-oxo-2-((2-oxo-2,3-dihydrobenzo[d]oxazol-6-yl)methyl)isoindoline-5-carbonitrile] | > 1.5 | –
9 | 500 to 5000 | B (3≥B>2) | 500 to 5000 | – | – | O=C1c2ccccc2C(CC2CCCCC2)N1Cc1ccc2[nH]c(=O)oc2c1 (stereo not shown) [Compound 167, 6-((1-(cyclohexylmethyl)-3-oxoisoindolin-2-yl)methyl)benzo[d]oxazol-2(3H)-one] | 1.2 to 1.5 | –
10 | ≥ 5000 | A (A>3) | 500 to 5000 | – | – | O=c1ccc2ccccc2n1Cc1ccc(O)cc1 [Compound 5, 1-(4-hydroxybenzyl)quinolin-2(1H)-one] | 1.2 to 1.5 | –
11 | – | B (3≥B>2) | – | < 500 | < 500 | Cn1nc(C(F)(F)F)c(Cl)c1CC1c2ccccc2C(=O)N1Cc1ccc2[nH]nnc2c1 (stereo not shown) [Compound 362, 2-((1H-benzo[d][1,2,3]triazol-5-yl)methyl)-3-((4-chloro-1-methyl-3-(trifluoromethyl)-1H-pyrazol-5-yl)methyl)isoindolin-1-one] | – | > 1.5
12 | – | B (3≥B>2) | – | < 500 | < 500 | NC(=O)C1CC(CN2C(=O)c3ccccc3C2Cc2ncccc2Br)C1 (stereo not shown) [Compound 404, 3-((1-((3-bromopyridin-2-yl)methyl)-3-oxoisoindolin-2-yl)methyl)cyclobutane-1-carboxamide] | – | > 1.5
13 | 500 to 5000 | A (A>3) | 500 to 5000 | – | – | COc1ccc2c(c1)CN(Cc1ccc(O)cc1)C2=O [Compound 35, 2-(4-hydroxybenzyl)-5-methoxyisoindolin-1-one] | 1.2 to 1.5 | –
14 | – | A (A>3) | – | 500 to 5000 | < 500 | Cn1ncc(Cl)c1CC1c2cc(C#N)ccc2C(=O)N1Cc1ccc2[nH]nnc2c1 (stereo not shown) [Compound 327, 2-((1H-benzo[d][1,2,3]triazol-5-yl)methyl)-3-((4-chloro-1-methyl-1H-pyrazol-5-yl)methyl)-1-oxoisoindoline-5-carbonitrile] | – | 1.2 to 1.5
15 | – | A (A>3) | – | < 500 | 500 to 5000 | Cn1ncc(Cl)c1CC1c2ccccc2C(C)(C)N1Cc1ccc2[nH]c(=O)oc2c1 (stereo not shown) [Compound 613, 6-((3-((4-chloro-1-methyl-1H-pyrazol-5-yl)methyl)-1,1-dimethylisoindolin-2-yl)methyl)benzo[d]oxazol-2(3H)-one] | – | 1.2 to 1.5
16 | – | B (3≥B>2) | – | 500 to 5000 | < 500 | O=C1NCC2(CC(CN3C(=O)c4ccccc4C3Cc3c(Cl)nc4sccn34)C2)O1 (stereo not shown) [Compound 469, 2-((1-((6-chloroimidazo[2,1-b]thiazol-5-yl)methyl)-3-oxoisoindolin-2-yl)methyl)-5-oxa-7-azaspiro[3.4]octan-6-one] | – | > 1.5
17 | – | A (A>3) | – | ≥ 5000 | 500 to 5000 | COc1ccc(CN2C(=O)c3ccc(OC(F)F)cc3C2Cc2c(Cl)cnn2C)cn1 (stereo not shown) [Compound 619, 3-((4-chloro-1-methyl-1H-pyrazol-5-yl)methyl)-5-(difluoromethoxy)-2-((6-methoxypyridin-3-yl)methyl)isoindolin-1-one] | – | > 1.5
18 | < 500 | A (A>3) | < 500 | – | – | O=C1c2ccccc2C(Cc2ncccc2Br)N1Cc1ccc2[nH]c(=O)oc2c1 (stereo not shown) [Compound 205, 6-((1-((3-bromopyridin-2-yl)methyl)-3-oxoisoindolin-2-yl)methyl)benzo[d]oxazol-2(3H)-one] | > 1.5 | –
19 | ≥ 5000 | B (3≥B>2) | 5000 to 50000 | – | – | O=c1[nH]c2ccc(Cn3ccc4ccccc4c3=O)cc2o1 [Compound 4, 6-((1-oxoisoquinolin-2(1H)-yl)methyl)benzo[d]oxazol-2(3H)-one] | 1.2 to 1.5 | –
20 | – | A (A>3) | – | < 500 | 500 to 5000 | Cn1ncc(Cl)c1CC1c2cc(C3CCOCC3)ccc2C(=O)N1Cc1ccc2[nH]nnc2c1 (stereo not shown) [Compound 398, 2-((1H-benzo[d][1,2,3]triazol-5-yl)methyl)-3-((4-chloro-1-methyl-1H-pyrazol-5-yl)methyl)-5-(tetrahydro-2H-pyran-4-yl)isoindolin-1-one] | – | > 1.5
21 | – | B (3≥B>2) | – | 500 to 5000 | 500 to 5000 | Cn1ncc(Cl)c1CC1c2cc(CN3CC4(COC4)C3)ccc2C(=O)N1CC1CC2(CNC(=O)O2)C1 (stereo not shown) [Compound 512, 2-((5-((2-oxa-6-azaspiro[3.3]heptan-6-yl)methyl)-3-((4-chloro-1-methyl-1H-pyrazol-5-yl)methyl)-1-oxoisoindolin-2-yl)methyl)-5-oxa-7-azaspiro[3.4]octan-6-one] | – | > 1.5
22 | 500 to 5000 | A (A>3) | 500 to 5000 | – | – | Cc1ccccc1CC1c2ccncc2C(=O)N1Cc1ccc2[nH]c(=O)oc2c1 (stereo not shown) [Compound 168, 6-((1-(2-methylbenzyl)-3-oxo-1,3-dihydro-2H-pyrrolo[3,4-c]pyridin-2-yl)methyl)benzo[d]oxazol-2(3H)-one] | > 1.5 | –
23 | < 500 | A (A>3) | 500 to 5000 | – | – | O=C1c2ccccc2C(Cc2ccccc2Cl)N1Cc1ccc2[nH]c(=O)oc2c1 (stereo not shown) [Compound 157, 6-((1-(2-chlorobenzyl)-3-oxoisoindolin-2-yl)methyl)benzo[d]oxazol-2(3H)-one] | > 1.5 | –
24 | – | B (3≥B>2) | – | 500 to 5000 | 500 to 5000 | COc1ccc(CN2C(=O)c3ccccc3C2Cc2c(Cl)ccc(=O)n2C)cn1 (stereo not shown) [Compound 609, 3-((3-chloro-1-methyl-6-oxo-1,6-dihydropyridin-2-yl)methyl)-2-((6-methoxypyridin-3-yl)methyl)isoindolin-1-one] | – | > 1.5
25 | – | B (3≥B>2) | – | 500 to 5000 | 500 to 5000 | COc1ccc(CN2C(=O)c3ccccc3C2Cc2c(Cl)cnn2C)cn1 (stereo not shown) [Compound 574, 3-((4-chloro-1-methyl-1H-pyrazol-5-yl)methyl)-2-((6-methoxypyridin-3-yl)methyl)isoindolin-1-one] | – | > 1.5

— patent US20260078130A1, “NAMPT MODULATORS, PREPARATIONS, AND USES THEREOF” (SIRONAX LTD., priority 2022, published 2026)
